The values below come from publication PMC12278462, “Site-selective arylations of nature-inspired flavonoids or steroidal phenols via C—H or O—H activation” (Journal of Enzyme Inhibition and Medicinal Chemistry, 2025).

One data set relates to HeLa. The experiment in a line: MTT antiproliferative assay, HeLa. It counts as cell-based, human. The note with it: Homo sapiens, HeLa, 72 h; for IC50: read-out: calculated IC50 HeLa. As to the method: (§1) We evaluated the cytotoxic activity of the newly synthesised arylated compounds 13–17 by the MTT assay[37] on a panel of human adherent cancer cell lines. The panel included breast (MCF-7 and MDA MB-231) and cervical (HeLa, SiHa and C33A) cancer cell lines differing in receptorial or HPV status. Tumour selectivity was determined on the NIH/3T3 mouse fibroblast cell line.
(§2) Briefly, the panels of breast and cervical cancerous cell lines, differing by their receptorial and HPV status were used, precisely MCF-7 (ER, PR and HER2 positive) and MDA-MB-231 (TNBC) breast carcinoma and HeLa (HPV18+), SiHa (HPV16+), C33A (HPV-) cervical carcinoma cells. Non-cancerous NIH/3T3 mouse fibroblast cell line was used for selectivity study. MCF-7, MDA-MB-231, Hela and NIH/3T3 cell lines were purchased from ECACC (European Collection of Cell Cultures, Salisbury, UK), while SiHa and C33A from ATCC (American Tissue Culture Collection, LGC Standards GmbH, Wesel, Germany). Cells were maintained in Eagle's Minimum Essential Medium (EMEM, Capricorn Scientific GmbH, Ebsdorfergrund, Germany) supplemented with 10% heat-inactivated fetal bovine serum (FBS), 1% non-essential amino acids (NEAA), and 1% antibiotic-antimycotic mixture (penicillin–streptomycin). The cells were maintained at 37 °C in a humidified atmosphere containing 5% CO2.
(§3) For measurements cells were seeded for 96-well plates at a density of 5 000/well, except for C33A, which was seeded in 10 000cells for each well. After overnight standing cells were treated with 10 and 30 µM solutions for screening and increasing concentrations (0.1-30.0 µM) of the test compounds were used for concentration-response curves. After incubation for 72 hours under cell culturing condition 5 mg/ml MTT (3-(4,5-[…])-2,5-diphenyl-2H-tetrazolium bromide) solution was added for another 4 h. The precipitated formazan crystals were solubilized in DMSO and the absorbance was measured at 545 nm with a microplate reader (BMG Labtech, Ortenberg, Germany). Wells with untreated cells were utilized as control, and inhibition % were calculated by GraphPad Prism v 9.0 software (GraphPad Software, San Diego, CA, USA). If the growth-inhibition exceeded 70% at 30 µM concentration during the screening concentration-response curves were fitted and IC50 values were calculated by GraphPad Prism v 9.0. The experiments were performed with five parallel wells for each experimental condition and repeated at least twice.

Data set [1] has as its system NIH/3T3 mouse fibroblast cell line. In words: MTT assay, tumour selectivity on non-cancerous fibroblasts. It counts as cell-based. The note with it: Mus musculus; for inhibition at 10 µM: NIH3T3, 10 µM; for inhibition at 10 µM / inhibition at 30 µM: 72 h; for inhibition at 30 µM: NIH3T3, 30 µM; for IC50: NIH3T3, 72 h, read-out: calculated IC50 NIH/3T3. The procedure:
as §1, §2, §3

A further data set relates to MDA-MB-231. In words: MTT antiproliferative assay, MDA-MB-231. In kind it is cell-based, human. The note with it: Homo sapiens; for inhibition at 10 µM: MDA-MB-231, 10 µM; for inhibition at 10 µM / inhibition at 30 µM: 72 h; for inhibition at 30 µM: MDA-MB-231, 30 µM; for IC50: MDA-MB-231, 72 h, read-out: calculated IC50 MDA-MB-231. The procedure:
as §1, §2, §3

The test system of another data set is C33A. The experiment in a line: MTT antiproliferative assay, C33A. In kind it is cell-based, human. The note with it: Homo sapiens, C-33-A, 72 h; for IC50: read-out: calculated IC50 C33A. The procedure: as §1, §2, §3
A further data set has as its system MCF-7. The experiment in a line: MTT antiproliferative assay, MCF-7. In kind it is cell-based, human. The note with it: Homo sapiens; for inhibition at 10 µM: MCF7, 10 µM; for inhibition at 10 µM / inhibition at 30 µM: 72 h; for inhibition at 30 µM: MCF7, 30 µM; for IC50: MCF7, 72 h, read-out: calculated IC50 MCF-7. As to the method: as §1, §2, §3
In data set [2] the test system is HeLa cells. The experiment in a line: Cell cycle analysis by flow cytometry (propidium iodide). It counts as cell-based, human. The note with it: 24 and 48 h. As to the method: To determine the cellular DNA content of the cells, flow cytometry analysis after propidium-iodide labeling was performed. Propidium iodide is a nuclear dye intercalating between the base pairs in DNA without sequence preference. Therefore, the cells' total emitted fluorescence will depend on each cell's DNA content, which varies depending on the cell cycle phase.
Hela cells were seeded into 12-well plates at 200,000 cells/well density for the cell cycle analysis. Cells were incubated overnight prior to the treatment, then treated with 1, 2, and 3 µM solutions of 14c compound for 24 h and 48 hours. After incubation, cells were washed twice with phosphate-buffered saline (PBS) and harvested. After centrifugation at 1200 rpm, for 7 minutes, cells were washed again with 300 µl PBS and fixed in 500 µl cold 70% ethanol. Samples were stained in 300 µl dye solution containing RNaseA, TritonX-100, sodium citrate, and 0.1 mg/ml-PI in distilled water. The suspension was incubated for 20 minutes in the dark at room temperature. Cells were measured by CytoFLEX flow cytometer, recorded by CytExpert Software (Beckman Coulter INC, Brea, CA, USA). In each analysis, 20,000 events were recorded inside the FSC/SSC gate, and the percentages of the cells in the different phases of the cell cycle were determined and analyzed using ModFit LT 6.0 software.
(A flow cytometer gives signals particle by particle.)

For data set [3], the system named is human adherent cancer cell lines (HeLa, SiHa, C33A, MCF-7 and MDA-MB-231). In words: MTT assay, whole panel of cell lines. In kind it is cell-based. The note with it: for IC50: Homo sapiens, MTT, 72 h, range across cell lines, read-out: IC50 range over the investigated cell lines. As to the method: as §1, §2, §3
(In general: Formazan colour is commonly taken as a measure of viable cells.)

The subject of data set [4] is HeLa cells. The experiment in a line: Mitochondrial membrane potential assay (JC-10, flow cytometry). It counts as cell-based, human. The note with it: 24 h. The text has this:
JC-10 dye was used to investigate the changes in the mitochondrial membrane potential. JC-10 is a cationic dye that can pass through the cell membrane and accumulate in healthy mitochondria by forming reversible red-fluorescent aggregates. In addition, changes in membrane potential result in the failure to retain the aggregates. Therefore, the dye returns to the cytosol in green monomeric form. Mitochondrial changes may be detected by measuring the green and red fluorescent signals together.
Hela cells were seeded into 12-well plates at 200,000 cells/well density and incubated overnight. Cells were treated with 1 and 2 µM of 17c for 24 h and 10 µM of CCCP as reference compound ^S1. After the incubation, cells were collected and centrifuged at 1100 rpm for 6 minutes, then washed with PBS. After centrifugation, 300 µl dye solution (20 µM JC-10 final concentration) was added to the pellet. After 5 min incubation, cells were measured by CytoFLEX flow cytometer, recorded by CytExpert Software (Beckman Coulter INC, Brea, CA, USA) reading of red and green fluorescence on 525 and 585 channels.

The next data set has as its system SiHa. The experiment in a line: MTT antiproliferative assay, SiHa. It counts as cell-based, human. The note with it: Homo sapiens, SiHa, 72 h; for IC50: read-out: calculated IC50 SiHa. The procedure: as §1, §2, §3
The next data set has as its system cancer cell lines. The note with it: cited from earlier work.
For the next data set, the target named is T1, 17β-HSD1 (Homo sapiens, UniProt P14061).
T1 sequence (P14061 1-328): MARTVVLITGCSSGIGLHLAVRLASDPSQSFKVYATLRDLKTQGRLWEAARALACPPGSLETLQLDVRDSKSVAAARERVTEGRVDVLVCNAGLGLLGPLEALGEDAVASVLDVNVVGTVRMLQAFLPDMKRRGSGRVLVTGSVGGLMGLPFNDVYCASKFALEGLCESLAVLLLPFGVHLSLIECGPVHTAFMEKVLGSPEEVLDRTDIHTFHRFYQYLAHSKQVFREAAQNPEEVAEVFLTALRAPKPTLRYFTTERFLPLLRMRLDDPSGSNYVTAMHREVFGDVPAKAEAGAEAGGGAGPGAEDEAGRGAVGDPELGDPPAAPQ
The experiment in a line: 17β-HSD1 enzymatic assay (E1 to E2, LC-MS/MS). It counts as biochemical. The procedure: The bacterial homogenate of E. coli overexpressing HSD17B1 was previously prepared as described in references ^S2,S3, and stored in aliquots at -80 °C. Before conducting experiments, aliquots were quickly thawed and diluted twice with 100 mM sodium phosphate buffer (pH 6.5; #14457, #1411007, Kemika), then kept on ice. The enzymatic assay was performed as described in ^S3. Briefly, a 1 mL enzymatic reaction mixture was prepared in 2 mL microcentrifuge tubes with the following components: 10 µL of the test inhibitor dissolved in dimethyl sulfoxide (DMSO; #276855, Sigma Aldrich) or 10 µL of DMSO for control samples, 5 µL of 14 µM substrate estrone (E1; CAS 53-16-7; #E2300-000, Steraloids), 10 µL of 10 mM NADPH (#AE14, Carl Roth) prepared in 100 mM sodium phosphate buffer, and 965 µL of 100 mM sodium phosphate buffer (pH 6.5). The reaction mixture was mixed thoroughly before adding 10 µL of bacterial homogenate. Immediately after addition, the tubes were transferred to an Eppendorf thermoshaker (#5382000031, Eppendorf) and incubated at 37 °C for 10 minutes. To stop the reaction, 60 µL of 1.26 M ascorbic acid (#A92902, Sigma Aldrich) in methanol (#34966, Honeywell/Riedel-de Haen) /acetic acid (#1.00063, Merck) (99:1, v/v) was added. The samples were then immediately processed using solid-phase extraction (SPE). The assay was repeated in three independent experiments, with each experiment performed in technical duplicate.
The preparation of samples for liquid chromatography-tandem mass spectrometry (LC-MS/MS) involved SPE. Stock solutions of E1 and 17β-estradiol (E2; CAS: 50-28-2; #142406, Steraloids) were prepared gravimetrically and dissolved in methanol (#34966, Honeywell/Riedel-de Haen). A working calibrator solution containing both steroids was then prepared by mixing appropriate volumes of the stock solutions in methanol to achieve a final concentration of 1 µg/mL for each steroid. Eight-point calibration curves (excluding zero and blank) were prepared in 100 mM sodium phosphate buffer (pH 6.5). For each 1 mL reaction mixture or calibrator, 10 µL of 100 ng/mL internal standard solution containing [2,3,4-13C3]-17β-estradiol (#719552, Sigma Aldrich) was added. Samples were mixed thoroughly and incubated at room temperature for 15 minutes.
SPE was performed using Strata X 33 µm polymeric reversed-phase columns (30 mg/mL tubes; #8B-S100-TAK, Phenomenex). The procedure involved the following steps: column conditioning with 1 mL of methanol, column equilibration with 1 mL of H₂O (#1.15333, Supelco), sample loading (1 mL sample or calibrator), column washing with 1 mL of H₂O, column drying under high vacuum for 10 minutes, and finally elution with 1 mL of methanol directly into HPLC glass vials (#702713, Macherey-Nagel GmbH/Co). The eluted samples were stored at -20 °C until LC-MS/MS analysis.

Consider `CCCCOC1(c2cc(=O)c3c(Oc4ccc(C(C)(C)C)cc4)cc(O)cc3o2)C=CC(=O)C=C1` [17c, 2-(1-Butoxy-4-oxocyclohexa-2,5-dienyl)-5-(4-tert-butylphenoxy)-7-hydroxy-chromen-4-one], for which the inhibition – broadly, the drop in the measured response relative to a control, in per cent – at 10 µM stood at 98% in the data set on HeLa; 92.7% in [1]; 98.3% in the data set on MDA-MB-231; 97.9% in the data set on C33A; 98.5% in the data set with MCF-7; 89.8% in the data set on SiHa. The inhibition at 30 µM in the data set on HeLa amounted to 98%; in [1], 99%; with MDA-MB-231, 97%; in the data set on C33A, 97.9%; in the data set on MCF-7, 98.9%; in the data set with SiHa, 96.2%. In addition, the IC50 in the data set on HeLa is 470 nM; in data set [1], 930 nM; in the data set with MDA-MB-231, 420 nM; with C33A, 390 nM; in the data set on MCF-7 it was 600 nM; in data set [3], 390 to 640 nM. The IC50 with SiHa is 640 nM. Further, the subG1 phase entry with HeLa cells [2] was “substantial subG1 phase elevation”. Further, the “proportion of the cells at G2/M phase” value with HeLa cells [2] (concentration-dependent) is “significantly increases”. Also, the “times stronger activity than parent compound 10” value in data set [3] (ratio of IC50 values, all investigated cell lines) was 2.5–5 times. Moreover, in the data set with HeLa cells [4] (1 and 2 µM, vs untreated controls), the “number of mitochondrial membrane-disrupted cells” value is on record as “significantly increased”. For the same compound, in the data set with HeLa cells [4] (CCCP 10 µM), the “effect on mitochondrial membrane potential compared with reference agent CCCP” value is “more substantial than that of the applied reference agent CCCP”.
As for `C[C@@]12CC[C@@H]3c4ccc(OCc5cn(Cc6ccccc6)nn5)cc4CC[C@H]3[C@@H]1CCC2=O` [compound 5], in the data set on cancer cell lines, the IC50 was 600 to 900 nM and the “IC50 (cytotoxic)” value is “submicromolar”.
Consider `CC(C)(C)c1ccc(-c2cc(O)cc3c2[C@H]2CC[C@@]4(C)C(=O)CC[C@H]4[C@@H]2CC3)cc1` [14c, 3-hydroxy-1-(4-tert-butylphenyl)-13α-estra-1,3,5(10)-triene-17-one], for which the inhibition at 10 µM in the data set with HeLa was 21.9%; in data set [1], 16.1%; in the data set on MDA-MB-231, under 10%; in the data set on C33A, 25.4%; in the data set on MCF-7 it was 35.4%; in the data set on SiHa, 20.2%. The inhibition at 30 µM with HeLa came out at 98.3%; in data set [1], 98.3%; in the data set on MDA-MB-231 it was 91.3%; in the data set with C33A, 89.8%; with MCF-7 it was 101%; in the data set on SiHa, 99.6%. The IC50 in the data set on HeLa was 13000 nM; in data set [1], 13700 nM; with MDA-MB-231 it was 20500 nM; in the data set on C33A it was 14400 nM; on 17β-HSD1 (read-out: 17β-HSD1 calculated IC50 (95% CI)), 2700 nM; in the data set on MCF-7, 10600 nM. Also, the IC50 was 10600 to 20500 nM in data set [3] and 12500 nM in the data set on SiHa. Moreover, the inhibition at 100 µM on 17β-HSD1 (100 µM test concentration, read-out: 17β-HSD1 Inhibition (% ± SD)) was 77.6 ± 6.3%.
